Columns and labels:
Test in all cases: relative viability (nuclei count vs DMSO), 5 days (fraction); higher = more cells survive
[1] = compound: CCOC1=CC=CC=C1N=NC2=C(NN(C2=O)C3=NC(=CS3)C4=CC=CC=C4)C [BAM7]
Procedure, shortened: (§1)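 For viability, nuclei in each treated well were divided by nuclei in vehicle wells and the median across plates was taken. Lung cancer cell lines in 1536-well plates were pinned with five library-drug doses (not always all listed) spaced by √10, cultured 5 days without medium change, and imaged at 4× after Hoechst staining, with plates passing only at control CV below 25% and at least one doubling.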

[2] = compound: CCn1c(-c2nonc2N)nc2c(C#CC(C)(C)O)ncc(OC[C@H]3CCCNC3)c21
Procedure, shortened: as §1

[3] = compound: CCOC1=CC=CC=C1N=NC2=C(NN(C2=O)C3=NC(=CS3)C4=CC=CC=C4)C [BAM7] + CC1(C)CCC(c2ccc(Cl)cc2)=C(CN2CCN(c3ccc(C(=O)NS(=O)(=O)c4ccc(N[C@H](CCN5CCOCC5)CSc5ccccc5)c(S(=O)(=O)C(F)(F)F)c4)cc3)CC2)C1 [Navitoclax] (partner 0.5 µM)
Procedure, shortened: (§2)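 The day after seeding in 1536-well plates, lung cancer cell lines were treated by pin tool with a single drug, or with a fixed anchor-drug dose together with five library-drug doses (not always all listed) in √10 steps. After 5 days, a combined fix-and-stain solution (final 0.05% Triton X-100, 1% formaldehyde, 1 ug/ml Hoechst) was added. Nuclei counted on 4× images gave relative viability as treated counts over vehicle counts, reported as the median of duplicate plates.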

[4] = compound: CCOC1=CC=CC=C1N=NC2=C(NN(C2=O)C3=NC(=CS3)C4=CC=CC=C4)C [BAM7] + COc1cc2c(Oc3ccc(NC(=O)C4(C(=O)Nc5ccc(F)cc5)CC4)cc3F)ccnc2cc1OCCCN1CCOCC1 [Foretinib] (partner 0.25 µM)
Procedure, shortened: as §2

Cell Line	relative viability ([1]; 0.5 µM)	relative viability ([1]; 5 µM)	relative viability ([1]; 15.81 µM)	relative viability ([1]; 50 µM)	relative viability ([2]; 0.01 µM)	relative viability ([2]; 0.03162 µM)	relative viability ([2]; 0.1 µM)	relative viability ([2]; 0.3162 µM)	relative viability ([2]; 1 µM)	relative viability ([3]; first compound 0.5 µM)	relative viability ([3]; first compound 5 µM)	relative viability ([3]; first compound 15.81 µM)	relative viability ([3]; first compound 50 µM)	relative viability ([4]; first compound 0.5 µM)	relative viability ([4]; first compound 5 µM)	relative viability ([4]; first compound 15.81 µM)	relative viability ([4]; first compound 50 µM)
LU99A	1.09	1.02	0.979	1.07	1.07	1.13	0.889	0.854	0.922	0.787	0.849	0.72	0.821	0.787	0.888	0.828	0.843
NCI-H1355	0.971	0.888	0.862	0.91	0.932	0.904	0.958	0.945	0.992	0.856	0.94	0.773	0.957	0.936	0.907	0.795	0.791
HCC-78	1.06	0.879	1.07	1.04	0.882	0.926	0.971	0.962	0.844	0.901	0.69	0.658	0.796	0.566	0.516	0.564	0.58
HCC-15	1.01	1.01	0.97	0.927	0.959	1.02	1.04	0.952	0.914	0.751	0.768	0.683	0.707	1	1.04	0.982	1
EKVX	1.05	0.982	0.843	0.86	0.962	0.942	0.97	0.933	0.924	1.13	0.982	0.71	1.01	0.792	0.79	0.541	0.987
NCI-H2087	1.18	1.14	1.11	1.13	0.931	1.05	1.04	1.06	0.915	0.92	1.13	0.942	1.02	1.18	1.23	0.995	1.12
LK-2	1.03	1.13	1.04	1.1	0.889	1.06	0.815	0.913	0.872	0.896	0.893	0.886	0.85	1.15	1.23	1.18	1.29
NCI-H1437	0.991	1.02	0.928	1.01	0.957	0.974	1.05	0.935	1.1	1.18	1.07	0.964	1.03	1.31	1.2	1.21	1.2
COR-L23	0.982	1.07	0.966	1.01	0.991	1.04	0.986	0.973	1.04	1.03	1.15	0.986	0.955	0.891	1.01	0.897	0.981
NCI-H838	1.03	1.04	0.946	1.06	1.01	1	0.993	0.846	0.963	1.2	1.19	1.14	1.12	1.08	1.22	0.985	0.989
A549	1.01	1.07	0.948	1.03	0.934	0.995	0.996	0.896	0.951	1.34	1.27	1.16	1.27	1	1.1	0.93	0.989
A-427	1.05	1.08	1	1.09	0.994	1.06	0.918	0.965	1.08	0.991	0.921	0.974	0.971	1.11	1.07	1.05	1.05
LCLC-97TM1	1.12	1.12	1.09	1.06	0.989	1.01	1.16	0.854	0.944	0.569	0.401	0.419	0.61	0.975	0.963	0.935	0.883
NCI-H1703	1.04	0.989	0.808	1	0.828	0.973	0.839	0.788	0.612	1.35	1.13	0.941	0.872	0.329	0.42	0.393	0.326
PC-3 [JPC-3]	0.967	1.02	0.974	0.917	1.02	1.02	1.05	0.996	1.08	0.688	0.815	0.755	0.626	0.923	0.948	0.819	0.915
BEN	1.04	1.05	1.11	0.981	0.988	1.03	0.735	0.935	0.962	0.0506	0.068	0.0675	0.068	0.694	0.639	0.634	0.618
NCI-H1666	1.03	1	1.09	1.05	1.02	0.956	1.01	0.949	0.954	0.938	1.11	0.912	0.858	0.945	1.1	0.996	1.06
LC-2-ad	0.961	1	0.939	1.01	0.903	0.951	0.964	0.949	0.989	0.548	0.532	0.422	0.464	0.908	0.911	0.829	0.908

— the supplement of paper PMC10307832
